The record followed here is ChEMBL document CHEMBL1201862, “PubChem BioAssay data set” (2004).

The target in one assay is Genome polyprotein (dengue virus type 2, UniProt P29990). As to the kind of experiment: flavivirus cap methylation enzyme inhibition – biochemical, confirmation dose response, primary screen (AID 588689). In kind it is functional.
Assay [1] in a line: viability loss in THP-1 monocytes – THP-1 cells, cytotoxicity control for Vif-APOBEC3G degradation inhibitor project, dose response (AID 1117359). Type of assay: functional. The note with it: THP-1.
For another assay, the target named is Beta Lactamase (Pseudomonas aeruginosa, UniProt Q932Y6). Nature of the assay: BLA reporter interference, concentration series – BLA reporter cells, FRET fluorescence, artefact control for NOD2-RIPK2 interaction inhibitor project, dose response (AID 651552). Type of assay: functional, cell-based.
Assay [2] can be described thus: Fluorescence-based cell-based high throughput dose response assay for inhibitors of the interaction of nucleotide-binding oligomerization domain containing 2 (NOD2) and the receptor-interacting serine-threonine kinase 2 (RIPK2). In kind it is functional. The note with it: Homo sapiens.
A further assay has as its target Hexokinase HKDC1 (Homo sapiens, UniProt Q2TB90). As to the kind of experiment: inhibition of HKDC1 glucose phosphorylation – biochemical, W721R variant, dose response (AID 504729). In kind it is functional.
The target of another assay is Beta-galactosidase (Escherichia coli, UniProt Q8VNN2). Nature of the assay: detection-enzyme interference by beta-gal modulators – biochemical, E. coli enzyme, set 3, artefact control for CCR6 antagonist project, dose response (AID 504712). Type of assay: functional.
Assay [3] deals with Acylamino-acid-releasing enzyme (Homo sapiens, UniProt P13798). As to the kind of experiment: endogenous PME-1 and serine hydrolase inhibition – cell lysate, mouse brain cytosol, FP-rhodamine, gel ABPP, selectivity assay for PME-1 inhibitor project, dose response, panel member APEH Assay Panel member description: Inhibition of N-acylaminoacyl-peptide hydrolase (APEH) (anti-target) (AID 2366).
Acylamino-acid-releasing enzyme, sequence (P13798 whole entry): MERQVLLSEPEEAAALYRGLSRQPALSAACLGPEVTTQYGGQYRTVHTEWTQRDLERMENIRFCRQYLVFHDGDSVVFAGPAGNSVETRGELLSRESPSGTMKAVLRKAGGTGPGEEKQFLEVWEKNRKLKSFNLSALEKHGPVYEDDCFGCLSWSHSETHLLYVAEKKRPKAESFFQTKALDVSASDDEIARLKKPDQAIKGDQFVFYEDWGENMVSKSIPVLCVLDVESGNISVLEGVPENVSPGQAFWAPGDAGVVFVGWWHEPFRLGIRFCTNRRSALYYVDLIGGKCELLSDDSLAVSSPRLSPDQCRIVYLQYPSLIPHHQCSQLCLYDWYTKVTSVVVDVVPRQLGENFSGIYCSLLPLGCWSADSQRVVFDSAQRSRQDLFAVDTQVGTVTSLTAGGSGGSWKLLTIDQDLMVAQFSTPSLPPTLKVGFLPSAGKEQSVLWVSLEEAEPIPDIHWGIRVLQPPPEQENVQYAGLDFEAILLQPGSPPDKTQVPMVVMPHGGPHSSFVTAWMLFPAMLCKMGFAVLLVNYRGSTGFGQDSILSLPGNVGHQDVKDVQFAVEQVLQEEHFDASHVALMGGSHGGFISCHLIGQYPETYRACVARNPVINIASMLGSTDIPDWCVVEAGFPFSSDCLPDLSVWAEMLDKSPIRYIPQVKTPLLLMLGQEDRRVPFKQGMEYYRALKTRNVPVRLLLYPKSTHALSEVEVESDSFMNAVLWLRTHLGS

Another assay deals with Cytochrome P450 2C19 (Homo sapiens, UniProt P33261). Nature of the assay: qHTS Assay for Inhibitors and Substrates of Cytochrome P450 2C19. [Related pubchem assays: 410 ]. In kind it is ADME. The note with it: read-out: Potency. In general terms: Quantitative high-throughput screening tests each substance at several concentrations.
In another assay the target is Cytochrome P450 2D6 (Homo sapiens, UniProt P10635). Nature of the assay: qHTS Assay for Inhibitors and Substrates of Cytochrome P450 2D6. [Related pubchem assays: 410 ]. Type of assay: ADME. The note with it: read-out: Potency.
For assay [4], the target named is Peroxisome proliferator-activated receptor gamma/Nuclear receptor coactivator 2 (Homo sapiens, UniProt P37231). In kind it is functional.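 Further: agonist potency for raising coactivator recruitment to the receptor.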
Peroxisome proliferator-activated receptor gamma/Nuclear receptor coactivator 2, sequence (P37231 whole entry): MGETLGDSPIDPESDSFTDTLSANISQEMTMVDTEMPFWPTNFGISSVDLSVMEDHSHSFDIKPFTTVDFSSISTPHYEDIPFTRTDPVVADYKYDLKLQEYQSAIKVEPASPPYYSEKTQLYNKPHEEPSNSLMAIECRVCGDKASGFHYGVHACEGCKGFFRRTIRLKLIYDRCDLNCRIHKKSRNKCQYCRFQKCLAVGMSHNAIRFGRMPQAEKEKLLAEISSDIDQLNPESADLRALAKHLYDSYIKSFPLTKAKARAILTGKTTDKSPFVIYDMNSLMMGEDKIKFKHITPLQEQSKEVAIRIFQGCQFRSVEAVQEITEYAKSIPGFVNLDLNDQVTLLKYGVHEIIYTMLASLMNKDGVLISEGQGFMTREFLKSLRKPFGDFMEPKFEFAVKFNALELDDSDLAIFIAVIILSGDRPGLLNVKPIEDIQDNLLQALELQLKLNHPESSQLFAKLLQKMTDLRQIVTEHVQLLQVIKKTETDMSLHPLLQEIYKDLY
Peroxisome proliferator-activated receptor gamma/Nuclear receptor coactivator 2, sequence (Q15596 whole entry, further chain): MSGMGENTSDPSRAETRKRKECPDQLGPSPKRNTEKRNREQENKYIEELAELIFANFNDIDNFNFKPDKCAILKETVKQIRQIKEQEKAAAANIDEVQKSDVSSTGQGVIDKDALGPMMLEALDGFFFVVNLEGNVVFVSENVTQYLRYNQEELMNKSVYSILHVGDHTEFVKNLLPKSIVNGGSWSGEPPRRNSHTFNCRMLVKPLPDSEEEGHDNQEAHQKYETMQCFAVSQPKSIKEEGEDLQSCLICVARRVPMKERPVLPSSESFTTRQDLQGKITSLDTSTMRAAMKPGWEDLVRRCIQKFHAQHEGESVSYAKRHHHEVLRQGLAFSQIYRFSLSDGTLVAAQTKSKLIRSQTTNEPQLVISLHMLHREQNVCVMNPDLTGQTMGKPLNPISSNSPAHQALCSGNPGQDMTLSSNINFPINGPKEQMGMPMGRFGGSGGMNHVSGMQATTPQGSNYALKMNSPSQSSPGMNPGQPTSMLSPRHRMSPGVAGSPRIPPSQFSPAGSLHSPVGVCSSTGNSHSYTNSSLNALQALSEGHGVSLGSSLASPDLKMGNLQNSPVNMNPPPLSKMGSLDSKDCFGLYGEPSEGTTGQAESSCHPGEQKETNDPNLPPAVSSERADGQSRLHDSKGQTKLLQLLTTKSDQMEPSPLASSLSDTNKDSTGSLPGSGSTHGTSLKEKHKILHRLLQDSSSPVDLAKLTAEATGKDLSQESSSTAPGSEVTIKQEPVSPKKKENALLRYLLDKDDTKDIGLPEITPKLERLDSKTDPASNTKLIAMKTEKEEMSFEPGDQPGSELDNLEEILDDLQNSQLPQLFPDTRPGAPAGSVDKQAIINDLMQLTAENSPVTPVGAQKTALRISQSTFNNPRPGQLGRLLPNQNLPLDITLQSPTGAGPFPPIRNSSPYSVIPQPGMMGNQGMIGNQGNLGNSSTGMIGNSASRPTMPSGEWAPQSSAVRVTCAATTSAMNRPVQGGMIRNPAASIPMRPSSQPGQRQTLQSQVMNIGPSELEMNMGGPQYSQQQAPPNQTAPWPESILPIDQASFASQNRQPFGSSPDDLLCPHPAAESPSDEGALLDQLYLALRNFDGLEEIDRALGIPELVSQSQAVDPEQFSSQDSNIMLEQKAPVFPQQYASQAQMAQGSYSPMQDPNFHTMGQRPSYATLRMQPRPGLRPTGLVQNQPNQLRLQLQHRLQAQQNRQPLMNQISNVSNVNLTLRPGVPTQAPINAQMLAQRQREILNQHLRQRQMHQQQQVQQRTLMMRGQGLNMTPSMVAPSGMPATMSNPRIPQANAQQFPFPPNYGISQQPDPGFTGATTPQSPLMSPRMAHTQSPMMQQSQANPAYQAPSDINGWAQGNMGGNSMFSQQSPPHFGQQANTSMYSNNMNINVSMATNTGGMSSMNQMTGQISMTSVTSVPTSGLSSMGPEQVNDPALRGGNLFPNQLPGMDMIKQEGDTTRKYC
In assay [5] the target is Peroxisome proliferator-activated receptor gamma/Nuclear receptor coactivator 1 (Homo sapiens, UniProt P37231). In kind it is functional.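 Further: agonist potency as compounds enhance coactivator SRC-1 recruitment to PPARgamma.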
Peroxisome proliferator-activated receptor gamma/Nuclear receptor coactivator 1, sequence (P37231 whole entry): as the sequence (P37231 whole entry) above
Peroxisome proliferator-activated receptor gamma/Nuclear receptor coactivator 1, sequence (Q15788 whole entry, further chain): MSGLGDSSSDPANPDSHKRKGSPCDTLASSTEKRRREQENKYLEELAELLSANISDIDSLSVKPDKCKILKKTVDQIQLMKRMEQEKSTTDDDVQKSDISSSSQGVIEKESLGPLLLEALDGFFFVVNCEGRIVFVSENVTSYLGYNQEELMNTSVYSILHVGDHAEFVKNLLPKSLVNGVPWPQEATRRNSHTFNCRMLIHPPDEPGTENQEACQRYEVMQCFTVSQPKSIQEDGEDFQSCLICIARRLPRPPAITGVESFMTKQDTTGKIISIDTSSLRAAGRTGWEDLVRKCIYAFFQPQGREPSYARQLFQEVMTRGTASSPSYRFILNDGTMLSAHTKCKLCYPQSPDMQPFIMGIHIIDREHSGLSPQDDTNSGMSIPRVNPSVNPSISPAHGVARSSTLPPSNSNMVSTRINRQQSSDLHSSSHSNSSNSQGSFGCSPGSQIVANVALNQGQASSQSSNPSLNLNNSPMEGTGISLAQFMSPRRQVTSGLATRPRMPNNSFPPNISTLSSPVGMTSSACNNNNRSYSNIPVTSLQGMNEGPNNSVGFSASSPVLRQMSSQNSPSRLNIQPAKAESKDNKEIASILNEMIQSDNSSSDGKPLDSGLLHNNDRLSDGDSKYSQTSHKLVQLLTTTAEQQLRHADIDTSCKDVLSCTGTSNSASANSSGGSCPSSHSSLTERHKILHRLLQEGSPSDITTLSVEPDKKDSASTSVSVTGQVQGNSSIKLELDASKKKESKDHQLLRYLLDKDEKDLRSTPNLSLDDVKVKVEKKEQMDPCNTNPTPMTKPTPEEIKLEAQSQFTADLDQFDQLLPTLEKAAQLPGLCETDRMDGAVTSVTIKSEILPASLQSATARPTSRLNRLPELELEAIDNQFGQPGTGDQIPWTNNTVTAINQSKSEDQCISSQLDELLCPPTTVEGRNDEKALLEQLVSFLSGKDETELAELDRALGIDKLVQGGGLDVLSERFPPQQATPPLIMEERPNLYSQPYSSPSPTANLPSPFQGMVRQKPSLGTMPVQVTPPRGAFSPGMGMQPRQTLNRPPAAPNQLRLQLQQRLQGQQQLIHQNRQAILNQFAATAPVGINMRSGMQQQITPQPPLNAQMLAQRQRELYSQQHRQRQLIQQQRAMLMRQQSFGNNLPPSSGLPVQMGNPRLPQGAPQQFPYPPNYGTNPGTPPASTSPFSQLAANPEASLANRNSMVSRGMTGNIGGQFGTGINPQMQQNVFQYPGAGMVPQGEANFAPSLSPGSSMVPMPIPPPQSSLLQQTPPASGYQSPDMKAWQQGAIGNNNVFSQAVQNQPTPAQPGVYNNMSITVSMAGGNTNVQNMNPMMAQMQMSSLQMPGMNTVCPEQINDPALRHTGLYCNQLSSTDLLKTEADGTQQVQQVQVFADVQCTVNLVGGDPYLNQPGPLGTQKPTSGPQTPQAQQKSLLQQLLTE
Assay [6] deals with Peroxisome proliferator-activated receptor gamma/Nuclear receptor coactivator 3 (Homo sapiens, UniProt P37231). In kind it is functional.
Assay [7] in a line: cells.
The target of assay [8] is Neurotensin receptor type 1 (Homo sapiens, UniProt P30989). In kind it is functional.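 Further: Image-based confirmatory dose-response assay measuring agonist activity at NTR1; NTR1-expressing U2OS osteosarcoma cells imaged for beta-arrestin GFP spot formation; agonist potency where compounds increase beta-arrestin recruitment.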
In assay [9] the target is T1, Oxysterols receptor LXR-beta (Homo sapiens, UniProt P55055).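 Further: Cell-based luminescence dose-response assay of agonist activity at LXR, run as a confirmatory counterscreen to a daf-12 agonist screen; HEK293 cells with Gal4-LXR fusion and GAL4-driven luciferase reporter; agonist potency from rising luciferase signal of a Gal4-LXR reporter.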
T1 sequence (P55055 whole entry): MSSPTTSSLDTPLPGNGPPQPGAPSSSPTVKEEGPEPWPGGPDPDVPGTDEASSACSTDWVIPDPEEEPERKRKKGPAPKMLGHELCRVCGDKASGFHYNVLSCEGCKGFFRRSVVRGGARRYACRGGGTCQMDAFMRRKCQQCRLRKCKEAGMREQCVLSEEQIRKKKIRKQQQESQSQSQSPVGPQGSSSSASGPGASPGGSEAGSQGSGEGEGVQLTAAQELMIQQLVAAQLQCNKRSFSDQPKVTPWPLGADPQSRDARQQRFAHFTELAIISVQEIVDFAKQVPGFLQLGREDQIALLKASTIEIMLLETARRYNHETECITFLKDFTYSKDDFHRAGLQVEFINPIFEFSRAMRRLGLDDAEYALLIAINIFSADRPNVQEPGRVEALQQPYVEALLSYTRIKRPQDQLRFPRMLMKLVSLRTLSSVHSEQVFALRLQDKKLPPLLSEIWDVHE
In kind it is functional, cell-based.

The target of assay [10] is Nucleotide-binding oligomerization domain-containing protein 2 (Homo sapiens, UniProt Q9HC29). Nature of the assay: PubChem AID 2334. Type of assay: functional.
The nature of assay [11]: THP-1 cell cytotoxicity, dose response, cytotoxicity control for non-replicating M. tuberculosis project (AID 489025). Type of assay: functional.
For another assay, the system named is HEK293. Nature of the assay: cells. Particulars: Homo sapiens.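 Further: cells exposed to compound for 14 hours overnight before viability readout.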
The next assay deals with Tumor necrosis factor (Homo sapiens, UniProt P01375). As to the kind of experiment: analog potency on TNFa NF-kB signaling – cell-based, revised, SAR follow-up (AID 2337). Type of assay: functional.
Tumor necrosis factor, sequence (P01375 whole entry): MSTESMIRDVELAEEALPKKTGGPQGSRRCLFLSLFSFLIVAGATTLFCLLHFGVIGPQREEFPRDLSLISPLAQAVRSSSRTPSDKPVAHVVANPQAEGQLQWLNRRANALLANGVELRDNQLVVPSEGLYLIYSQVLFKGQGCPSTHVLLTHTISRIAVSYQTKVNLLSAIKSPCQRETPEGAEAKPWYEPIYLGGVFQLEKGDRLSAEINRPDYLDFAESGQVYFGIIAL
Assay [12] in a line: Trypanosoma cruzi growth suppression in host cells – NIH3T3 host cells, beta-gal luminescence, confirmation (AID 2044).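 Further: intracellular parasites grown in NIH/3T3 mouse fibroblasts as host cells; luminescent beta-galactosidase reporter signal from transgenic T. cruzi replicating inside host cells; inhibitors lower the luminescence signal.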 Type of assay: functional, cell-based.
Assay [13] deals with T2, Interleukin-8 (Homo sapiens, UniProt P10145).
T2 sequence (P10145 whole entry): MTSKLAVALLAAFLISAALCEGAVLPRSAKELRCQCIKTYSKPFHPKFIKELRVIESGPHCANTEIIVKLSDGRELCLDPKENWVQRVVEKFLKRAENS
Nature of the assay: SAR analysis of GM-Tri-DAP induced IL-8 secretion in MCF-7/NOD1 cells - Set 2. [Related pubchem assays (depositor defined):AID1575, AID1578, AID2333]. Type of assay: functional, cell-based.

Assay [14] is described as follows: NIH3T3 cell viability loss – ATP luminescence, mouse fibroblasts, counter-screen, dose response (AID 2010).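 Further: cells exposed to compound for about 90 hours before reading.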 Type of assay: functional, cell-based. A general note: Counterscreens check selectivity or assay interference.
Assay [15] addresses Nucleotide-binding oligomerization domain-containing protein 1 (Homo sapiens, UniProt Q9Y239). Nature of the assay: blockers of NOD1 pathway activity – revised, SAR follow-up (AID 2333). Type of assay: functional.
Assay [16] deals with T2, Interleukin-8. As to the kind of experiment: SAR analysis of Tumor necrosis factor alpha (TNF-alpha) induced IL-8 secretion in MCF-7/NOD1 cells - Set 2. [Related pubchem assays (depositor defined):AID1575, AID2250, AID2260]. In kind it is functional, cell-based.
The nature of assay [17]: microbe, parasite or virus in culture. In kind it is functional. The note with it: Mycobacterium tuberculosis.
The nature of assay [18]: HepG2 cell cytotoxicity, dose response, cytotoxicity control for non-replicating M. tuberculosis project (AID 489018). In kind it is functional. The note with it: Mycobacterium tuberculosis.
The nature of assay [19]: cells. Type of assay: functional.
A short description of assay [20]: Vero E6 cell cytotoxicity, dose response, cytotoxicity control for non-replicating M. tuberculosis project, secondary assay (AID 492998). In kind it is functional, VeroE6. The note with it: Vero C1008.
For assay [21], the target named is Dual specificity protein phosphatase 3 (Homo sapiens, UniProt P51452). Nature of the assay: inhibition constants for human DUSP3 – biochemical, colorimetric, SAR follow-up (AID 2004).
Dual specificity protein phosphatase 3, sequence (P51452 whole entry): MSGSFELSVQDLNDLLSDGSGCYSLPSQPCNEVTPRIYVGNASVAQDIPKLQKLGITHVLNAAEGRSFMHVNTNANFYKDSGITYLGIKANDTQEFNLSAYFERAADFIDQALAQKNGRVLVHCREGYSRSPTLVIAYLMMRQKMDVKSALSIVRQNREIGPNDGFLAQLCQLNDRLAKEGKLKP

The source made the active and inactive calls.

Take `Cc1[nH]c2ccccc2c1C1=CC(=O)C=CC1=O`: the IC50 was 17.7 µM (active) on Genome polyprotein; 19.9 µM (inactive) on Beta Lactamase; 3.46 µM (active) in assay [2]; 3.4 µM (active) at Hexokinase HKDC1; > 66.6 µM (inactive) at Beta-galactosidase. For the same compound, the CC50 in [1] was > 40 µM (active).

As for `CC(C)(C)S(=O)(=O)/C(C#N)=C/c1cccn1S(=O)(=O)c1ccccc1`, in [3], the IC50 was > 50 µM (inactive).

`C[C@@H](C(=O)O)c1ccc(N2Cc3ccccc3C2=O)cc1` [(R)-INDOPROFEN]: the AC50 was 10 µM (inconclusive) on Cytochrome P450 2C19 and 7.94 µM (inconclusive) at Cytochrome P450 2D6.

In the case of `CCOc1cccc(C(=O)Nc2nnc(-c3cccs3)s2)c1`, the EC50 was 22.2 µM (not active) in [4], 24.1 µM (not active) in assay [5] and 30.3 µM (not active) in assay [6].

In the case of `O=C(N/N=C/c1cn(-c2ccccc2)nc1-c1cc2ccccc2o1)c1cccnc1`, the EC50 is > 67.5 µM (inactive) in the assay “cells [7]”, > 40 µM (inactive) in assay [8] and > 67.5 µM (inactive) in assay [9].

As for `CCC(=O)Nc1nc2ccccc2n1Cc1ccc(Cl)cc1`, the IC50 in assay [10] was 15.8 µM (active); in the assay with HEK293 it was > 20 µM (inactive); at Tumor necrosis factor, > 20 µM (inactive); at Interleukin-8 [13], > 25 µM (inactive); in assay [15] it was 12.3 µM (active); at Interleukin-8 [16], > 25 µM (inactive). For the same compound, the IC50 in “cells [19]” is 0.29 µM (active). The CC50 in assay [11] is > 40 µM (active); in assay [17] it was 33.9 µM (active); in assay [18], > 20 µM (active); in assay [20], 11 µM (active). The results for the EC50 in [12] and in assay [14] were 1.1 µM (active) and 8.28 µM (active), respectively.

For `Cc1cc(Br)c(-c2ccc(/C=C3/NC(=S)NC3=O)o2)cc1C`, the inhibition constant (Ki) in assay [21] was 3.19 µM (active).

One may read the IC50 as the midpoint of a concentration-inhibition curve. As a reminder, the EC50 is the concentration at which the effect is half-maximal. The Ki is the equilibrium dissociation constant of an inhibitor or competing ligand from its target.
